Here are results for four compounds from patent US20260373132A1, “PERK INHIBITORHC-5404 IN COMBINATION WITH ANTI-PD-1 ANTIBODY AND/OR AN ANTIANGIOGENETIC AGENT FOR USE IN THE TREATMENT OF CANCER” (HIBERCELL, INC., priority 2022, published 2026).

One series relates to pPERK in 786-O tumors. Nature of the series: pPERK in 786-O tumor xenografts. It counts as in vivo, mouse. As to conditions: for pPERK accumulation in 786-O tumors: PD arm, 7 days of dosing, single agent; for pPERK levels in 786-O tumors: single agent PO, several dose levels, 21 days (FIG. 26).
The test system of a further series is 786-O RCC xenograft. Description: 786-O RCC xenograft tumor growth. The class given is in vivo, mouse. As to conditions: for effect on tumor volume: single agent, efficacy arms (FIG. 28). As to the method: (§1) Xenograft RCC models were generated as follows: Female NOD.SCID mice (6-8 weeks of age) were injected with A498 RCC cells (5×10^6 cells/mouse), female Balb/c Nude mice (6-8 weeks old) were implanted with 786-O RCC cells (5×10^6 cells/mouse) or Caki-1 RCC cells (6×10^6 cells/mouse), female Athymic Nude-Foxn1nu mice (7-8 weeks of age) were implanted with MFE280 endometrial cells (10×10^6 cells/mouse). Cells were implanted into the flank of animals.
(§2) Once tumor tumors reached volume of typically 150-250 mm^3, animals were randomized by tumor volume into the treatment groups of 8 or 10 animals per group. In the single animal trial with RCC PDX models, only one animal per group was enrolled.
(§3) Body weight and tumor volume were measured twice weekly. Tumor volume was calculated using the formula [tumor volume (mm^3)=π/6×length×width^2] and plotted as means+SEM. The percentage of tumor growth inhibition was calculated at the end of the study using the formula: […], if ΔT>0, ΔT, mean tumor volume of the drug-treated group on the observation day of the study—mean tumor volume of the drug-treated group on initial day of dosing; ΔC, mean tumor volume of the control group on the observation day of the study—mean tumor volume of the control group on initial day of dosing. Regression was calculated using the formula=100×ΔT/Tinitial, if ΔT<0. Animals with >50% regressions were partial responders. Animals with tumor volume of 0 (no measurable tumor) were considered as complete responders, and animals with <50% tumor regression and 30% growth over the baseline were considered as stable disease. Animals with tumors>30% increase over the baseline were considered progressive disease. The % change in body weight was calculated by the formula (body weight on observation day−body weight on initial day)/body weight on initial day×100%.

For series [1], the system named is tumor vasculature of 786-O xenografts. Description: IHC of tumor vasculature in 786-O xenografts. It counts as in vivo, mouse. As to the method: (§4) Formalin-fixed paraffin-embedded samples were sectioned at 5 μm thickness and mounted on Superfrost Plus microscope slides (Fisher Scientific). All immunohistochemical (IHC) staining was performed on Bond Rx auto-stainer (Leica Biosystems) using the conventional TSA-amplified detection system. Primary antibodies used were as follows: α-CD31 (Abcam #ab182981), α-smooth muscle actin (SMA; Abcam #ab124964), α-Meca32 (Novus Biologicals #NB100-77668). TSA-conjugated Alexa488 and Alexa647 fluorophores from Invitrogen (#B40953 and #B40958) were used at 1:500 dilution. Slides were counterstained with DAPI and cover slipped using Mowiol antifade mounting media (Sigma #D2522).
(§5) Slides were imaged with Aperio Versa 200 (Leica Biosystems) whole-slide scanner using 10×/0.32NA objective, and the data were analyzed using custom-written macros in ImageJ/FIJI (NIH). Briefly, 150 μm of outer edges of the tumor sections were eliminated from the analysis. Gaussian-blurred DAPI channel was used to measure the area of the tissue. Scans of […] were processed with median filter to remove noise, then positive areas were measured with appropriate threshold levels. % positive area for each marker was calculated. CD31-SMA double positive areas were measured via image calculation of the binary images. One-way ANOVA and pair-wise comparisons were performed on the data using Prism GraphPad.
PERK is an adaptive stress response that links hypoxia and nutrient deprivation with proangiogenic signaling. The effect of HC-5404 on tumor vasculature when administered in combination with antiangiogenic VEGFR-TKIs was investigated.
As immature blood vessels mature, they develop a mural layer of cells that express smooth muscle actin (SMA), which encircles and stabilizes the maturing vessel. Co-staining for both CD31 and SMA was conducted to determine whether treatments were affecting mature or immature tumor blood vessels.
This example investigated the inhibition the effect of cabozantinib on the formation of new tumor vasculature and on pericytes following procedures analogous to those described above.

A short description of series [2]: mouse body weight / tolerability. The class given is in vivo. As to conditions: for body weight loss: 786-O xenografts, single agent PO, 21 days (FIG. 26). As to the method:
as §3

A further series has as its system A498 RCC xenograft. Description: A498 RCC xenograft tumor growth. The class given is in vivo, mouse. As to conditions: single agent: HC-5404 30 mg/kg PO BID or sunitinib 20 mg/kg PO QD (FIG. 31). As to the method: as §1, §2, §3
The test system of another series is Caki-1 RCC xenograft. Nature of the series: Caki-1 RCC xenograft tumor growth. As to conditions: HC-5404 or sunitinib monotherapy, compared with A498 (FIG. 32). It counts as in vivo, mouse. As to the method:
as §1, §2, §3

For series [3], the system named is MFE280 endometrial cancer model. Description: MFE280 endometrial xenograft tumor growth. The class given is in vivo, mouse. As to conditions: single agent: HC-5404 30 mg/kg PO BID or lenvatinib 10 mg/kg QD (FIG. 77). The method, then: as §1, §2
(§6) Body weight and tumor volume were measured twice weekly. Tumor volume was calculated using the formula [tumor volume (mm^3)=π/6×length×width^2] and plotted as means+SEM. The percentage of tumor growth inhibition was calculated at the end of the study using the formula: 100−[1−(ΔT/ΔC)], if ΔT>0, ΔT, mean tumor volume of the drug-treated group on the observation day of the study—mean tumor volume of the drug-treated group on initial day of dosing; ΔC, mean tumor volume of the control group on the observation day of the study—mean tumor volume of the control group on initial day of dosing. Regression was calculated using the formula=100×ΔT/Tinitial, if ΔT<0. […]

Series [4] deals with RCC patient-derived xenografts (PDXs). Nature of the series: single-animal study in RCC PDX models. The class given is in vivo, mouse.
From the text: For patient derived xenograft model generation, small pieces of neuroendocrine pancreatic cancers were implanted into female NSG mice (6-8 weeks of age), fragments of Huprime gastric cancers were implanted into female Balb/c nude mice and for a single animal trial in RCC PDX models, tumor fragments from selected RCC PDX models were implanted into mice unilaterally.
as §2
as §6, with “ΔT<0. Animals with >50% regressions were partial responders.” for “ΔT<0.”

For series [5], the system named is tumor vasculature and pericyte cells of 786-O xenografts progressed on axitinib. Description: IHC of tumor vasculature and pericytes in 786-O xenografts that progressed on axitinib. The class given is in vivo, mouse. As to the method:
as §4, §5
After 14 days of treatments, 77 mice bearing the largest tumors were rerandomized into four PD arms (n=8), four efficacy arms (n=10), and 5 tumors sampled on day of rerandomization as a baseline. The remaining animals were removed from study.

Where [6] appears, read: 7 days after rerandomization (FIG. 92).

As for `COc1cc2nccc(Oc3ccc(NC(=O)C4(C(=O)Nc5ccc(F)cc5)CC4)cc3)c2cc1OC` [cabozantinib], in the series with pPERK in 786-O tumors, the “pPERK accumulation in 786-O tumors” value is given as “induced pPERK accumulation” and the “pPERK levels in 786-O tumors” value was “dose-dependent increases in pPERK”. Further, in the series on 786-O RCC xenograft (cabozantinib 30 mg/kg QD alone or with HC-5404 10 or 30 mg/kg BID (each group)), the partial responses was 2/8. In addition, the tumor response entry with 786-O RCC xenograft (cabozantinib 30 mg/kg QD monotherapy (FIG. 52)) is given as “tumor stasis”. Moreover, the “effect on tumor volume” value in the series on 786-O RCC xenograft is on record as “modest effects on tumor volume”. The “immature vasculature (CD31+SMA− cells)” value in series [1] (cabozantinib study (FIG. 54, 55)) is on record as “near complete loss of immature vasculature”. In series [2], the body weight loss entry is on record as “no treatment-associated body weight loss was observed”. Moreover, the mouse body weight result in series [2] (786-O, HC-5404 3, 10, 30 mg/kg BID and/or cabozantinib 30 mg/kg QD (FIG. 53)) is on record as “did not affect mouse body weight”.
As usually defined, the TGI is the reduction of tumour growth relative to the control group. Low values mean a weaker effect on the tumour, high ones a stronger effect on the tumour. For the compound `CCN(CC)CCNC(=O)c1c(C)[nH]c(/C=C2\C(=O)Nc3ccc(F)cc32)c1C` [sunitinib, reference compound], in the series on pPERK in 786-O tumors, the “pPERK accumulation in 786-O tumors” value is “induced pPERK accumulation”. Besides, in the series with pPERK in 786-O tumors (sunitinib single agent), the “pPERK in 786-O xenografts” value is recorded as “increased pPERK” and the “time course of pPERK increase in 786-O xenografts” value was “increased over time”. For the same compound, the “inhibition of 786-O growth” value in the series on 786-O RCC xenograft (sunitinib single agent 40 mg/kg QD (FIG. 28)) is “effective inhibitor of 786-O growth”. Further, in the series with A498 RCC xenograft, the TGI was 80%. For the same compound, in the series on Caki-1 RCC xenograft, the “sensitivity of Caki-1 to monotherapy” value is on record as “far less sensitive”.
For `COc1cc2nccc(Oc3ccc(NC(=O)NC4CC4)c(Cl)c3)c2cc1C(N)=O` [lenvatinib], in the series on pPERK in 786-O tumors, the “pPERK accumulation in 786-O tumors” value is recorded as “induced pPERK accumulation” and the “pPERK levels in 786-O tumors” value is “dose-dependent increases in pPERK”. In addition, in the series with 786-O RCC xenograft, the “effect on tumor volume” value was “modest effects on tumor volume”. Further, the body weight loss result in series [2] was “no treatment-associated body weight loss was observed”. Also, the TGI % in series [3] is listed as ~ 85%.
As to `CNC(=O)c1ccccc1Sc1ccc2c(/C=C/c3ccccn3)n[nH]c2c1` [axitinib], in the series on pPERK in 786-O tumors, the “pPERK accumulation in 786-O tumors” value is on record as “induced pPERK accumulation” and the “pPERK levels in 786-O tumors” value is given as “dose-dependent increases in pPERK”. In the series on 786-O RCC xenograft, the “effect on tumor volume” value is given as “modest effects on tumor volume”. In series [4] (15 RCC PDX models, 28 days, PR: regression >50% vs baseline (FIG. 35)), the “partial responses (PRs) among models” value is given as 1/15. The “sensitivity of VHLwt models to axitinib” value in series [4] (three of the VHLwt models) is listed as “decreased sensitivity to axitinib”. Moreover, the “proportion of Meca32 expressing vascular endothelial cells” value in series [1] (axitinib study (FIG. 38, 39)) is given as “decreased”. For the same compound, in series [1] (axitinib study (FIG. 39)), the “immature CD31+SMA− vessels” value is recorded as “decreased” and the “mature CD31+SMA+ cells” value is recorded as “did not affect”. Further, in series [5] (setting [6]), the “proportion of cells expressing CD31” value is “decreased by axitinib” and the “proportion of smooth muscle actin (SMA)” value is “decreased”. Also, in [5] (FIG. 41, 42), the “number of Meca32+ and CD31+ cells” value was “decreased”. Moreover, in [5] (FIG. 43, 44), the “MCAM+ cells” value is reported as “decreased by axitinib”. Also, the body weight loss result in series [2] was “no treatment-associated body weight loss was observed”.
